Laboratory results as given in PubChem BioAssay (NCI).
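Grown in 96-well plates, cells were treated for 48 hours with each compound at five concentrations. Insufficient inhibition: endpoint recorded as highest concentration tested. TGI: total growth inhibition.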

How the values were obtained:
Test in all cases: growth of human tumour cells (NCI), 48 h
DMS 114 small cell lung = test system: DMS 114 small cell lung
DMS 273 small cell lung = test system: DMS 273 small cell lung
LXFL 529 NSCLC = test system: LXFL 529 NSCLC
XF 498 CNS = test system: XF 498 CNS
HOP-18 NSCLC = test system: HOP-18 NSCLC

## Cc1ccccc1NC(=O)CC(=O)N1N=C(N2c3ccccc3Sc3ccccc32)CC1c1ccccc1 (centres undefined)
DMS 114 small cell lung
  TGI: > 100 µM
DMS 273 small cell lung
  TGI: > 100 µM
LXFL 529 NSCLC
  TGI: > 100 µM
XF 498 CNS
  TGI: > 100 µM

## COc1ccc(C2c3cc4c(cc3OC(O)(CO)C2C(=O)O)OCO4)cc1 (centres undefined) (tested in a mixture with another compound)
DMS 114 small cell lung
  TGI: 61.3 µM
DMS 273 small cell lung
  TGI: 17.7 µM
HOP-18 NSCLC
  TGI: > 100 µM
LXFL 529 NSCLC
  TGI: 31.1 µM
XF 498 CNS
  TGI: 16.6 µM

## CCOC(=O)C(=O)NCCCN1CCOCC1
DMS 114 small cell lung
  TGI: > 100 µM
DMS 273 small cell lung
  TGI: > 100 µM
HOP-18 NSCLC
  TGI: > 100 µM
LXFL 529 NSCLC
  TGI: > 100 µM
XF 498 CNS
  TGI: > 100 µM
